Patent US10940139B2, “Compounds that interact with the Ras superfamily for the treatment of cancers, inflammatory diseases, rasopathies, and fibrotic disease” (Shy Therapeutics LLC, priority 2017, dated 2021)

Test system: MAPK phosphorylation in PANC-1 pancreatic cancer cell line
Test: MAPK cell-based phosphorylation assay (cell-direct ELISA, EGF stimulation)
Details: Homo sapiens
Protocol: Cell lines: Tumor-derived pancreatic cancer cell lines PANC-1 were purchased from ATCC and were maintained according to ATCC recommendation.
Method: Cells were plated at 7500 cells/well density in 96-wells plate, starved over night, and the small molecules to be tested were added to the cells in the final concentration of 30 μM with 0.3% DMSO for 6 hours incubation at 37° C. For IC50 value determination, serial dilutions of compounds were added to cells under the same conditions. Next, cells were stimulated with 1.5 ng/ml EGF for 15 min. followed by cell fixation with 4% Formaldehyde in PBS at RT for 20 min. Phosphorylation level of MAPK was determined by Cell-direct ELISA.
Cell-direct ELISA: For each well, cells were permeabilized with PBS-Triton 0.1%, quenched with H2O2 0.6% in PBS-Triton 0.1%, and probed with anti-phospho-MAPK antibodies (R&D Systems) followed by HRP-conjugated secondary antibody (Jackson Immunoresearch, West Grove, Pa.). Next, a solution 50 μM of the fluorescent substrate AmpliFlu Red (Sigma) was added and incubated at RT for 20 min. At the end of the incubation time, fluorescence was measured at 595 nm on a microplate reader (AF2200; Eppendorf, Inc., Hamburg, Germany).

| SMILES | inhibition at 30 µM [%] | IC50 [µM] |
| --- | --- | --- |
| CCCOc1ccc2ccccc2c1CN(C)S(=O)(=O)N1CC(C)OC(C)C1 (stereo not shown) [drawing 1051] | 1 to 25 | – |
| O=S(=O)(Oc1cc(C(F)(F)F)cc(C(F)(F)F)c1)N1CCc2ccccc2C1 [drawing 1052] | 1 to 25 | – |
| COC(=O)C(C)CN(Cc1cc(Br)ccc1[N+](=O)[O-])C1CC1 (stereo not shown) [drawing 1054] | 1 to 25 | – |
| CSc1nc(C2CC2)cc(C(=O)NCCc2ccc(S(=O)(=O)NC(=O)c3cc(C4CC4)nc(SC)c3C#N)cc2)c1C#N [drawing 1055] | 76 to 100 | – |
| CC(C)C1=C(O)C2(CC2c2ccc(-c3ccccc3)cc2)C(C)CC1 (stereo not shown) [drawing 1056] | 1 to 25 | – |
| COc1ccc(COCC(=O)N2CCCc3c(O)nc(-c4ccccn4)nc32)cc1 [drawing 1057] | 1 to 25 | – |
| COc1ccc(CCC(=O)N2CCCc3c(O)nc(-c4ccccn4)nc32)cc1 [drawing 1058] | 25 to 50 | – |
| O=C(c1ccc(=O)[nH]n1)N1CCCc2c(O)nc(-c3ccccn3)nc21 [drawing 1059] | 1 to 25 | – |
| O=S(=O)(CCc1ccccc1)N1CCCc2c(O)nc(-c3ccccn3)nc21 [drawing 1060] | 25 to 50 | – |
| O=C(CC(c1ccccc1)c1ccccc1)N1CCCc2c(O)nc(-c3ccccn3)nc21 [drawing 1061] | 1 to 25 | – |
| O=C(c1ccccn1)N1CCCc2c(O)nc(-c3ccccn3)nc21 [drawing 1062] | 1 to 25 | – |
| Nc1nc(O)c2scc(C(=O)N3CCc4ccccc4CC3)c2n1 [drawing 1063] | 1 to 25 | – |
| Oc1nc(-c2ccccn2)nc2c(Br)csc12 [drawing 1064] | 76 to 100 | 2 to 10 |
| CC1CCN(C(=O)c2csc3c(O)nc(-c4ccccn4)nc23)CC1 [drawing 1065] | 1 to 25 | – |
| COCCCC1CCN(C(=O)c2csc3c(O)nc(-c4ccccn4)nc23)CC1 [drawing 1066] | 1 to 25 | – |
| O=C(c1csc2c(O)nc(-c3ccccn3)nc12)N1CCC(N2CCOCC2)CC1 [drawing 1067] | 1 to 25 | – |
| O=C(c1csc2c(O)nc(-c3ccccn3)nc12)N1CCN(c2ccccc2)CC1 [drawing 1068] | 76 to 100 | 2 to 10 |
| O=C(c1csc2c(O)nc(-c3ccccn3)nc12)N1CCN(c2ccncc2)CC1 [drawing 1069] | 25 to 50 | – |
| O=C(c1csc2c(O)nc(-c3ccccn3)nc12)N1CCC(c2cccnc2)CC1 [drawing 1070] | 1 to 25 | – |
| O=C(NCCc1cccnc1)c1csc2c(O)nc(-c3ccccn3)nc12 [drawing 1071] | 1 to 25 | – |
| O=C(c1csc2c(O)nc(-c3ccccn3)nc12)N1CCc2ccccc2CC1 [drawing 1072] | 25 to 50 | – |
| Nc1nc(O)c2scc(-c3ccccc3Cl)c2n1 [drawing 1073] | 1 to 25 | – |
| Oc1nc(-c2ccccn2)nc2c(-c3ccccc3)csc12 [drawing 1074] | 76 to 100 | < 2 |
| Oc1nc(-c2ccccn2)nc2c(-c3ccccc3Cl)csc12 [drawing 1075] | 76 to 100 | < 2 |
| Oc1nc(-c2ccccn2)nc2[nH]cnc12 [drawing 1076] | 1 to 25 | – |

| SMILES | inhibition at 30 µM [%] | IC50 [µM] |
| --- | --- | --- |
| Oc1nc(-c2ccccn2)nc2c1ncn2-c1ccccn1 [drawing 1077] | 1 to 25 | – |
| Brc1csc2nc(-c3ccccn3)nc(N3CCOCC3)c12 [drawing 1079] | 1 to 25 | – |
| Oc1nc(-c2ccccn2)nc2scc(Br)c12 [drawing 1080] | 76 to 100 | 2 to 10 |
| Oc1nc(-c2ccccn2)nc2sccc12 [drawing 1081] | 1 to 25 | 11 to 30 |
| O=C1CN(c2nc(-c3ccccn3)nc3scc(-c4ccccc4)c23)CCN1 [drawing 1082] | 1 to 25 | – |
| N#Cc1ncn(-c2nc(-c3ccccn3)nc3sc(-c4ccccc4)cc23)n1 [drawing 1083] | 76 to 100 | 2 to 10 |
| Cc1nnc(C(Nc2nc(-c3ccccn3)nc3scc(-c4ccccc4)c23)c2ccccc2)n1C (stereo not shown) [drawing 1084] | 51 to 75 | – |
| Cc1sc2nc(-c3ccccn3)nc(NCCc3nccn3C)c2c1-c1ccccc1 [drawing 1085] | 1 to 25 | – |
| CCCNC(=O)CN1CCN(c2nc(-c3ccccn3)nc3sc(-c4ccccc4)cc23)CC1 [drawing 1086] | 76 to 100 | – |
| c1ccc(-c2csc3nc(-c4ccccn4)nc(N4CCN(Cc5cccnc5)CC4)c23)cc1 [drawing 1087] | 1 to 25 | – |
| c1ccc(-c2csc3nc(-c4ccccn4)nc(N4CCN(CC5CCCO5)CC4)c23)cc1 (stereo not shown) [drawing 1088] | 1 to 25 | – |
| CN(Cc1cnn(C)c1)c1nc(-c2ccccn2)nc2scc(-c3ccccc3)c12 [drawing 1089] | 25 to 50 | – |
| CN(CCCc1n[nH]c(N)c1C#N)c1nc(-c2ccccn2)nc2sc(-c3ccccc3)cc12 [drawing 1090] | 25 to 50 | – |
| O=C(CN1CCN(c2nc(-c3ccccn3)nc3sc(-c4ccccc4)cc23)CC1)N1CCCC1 [drawing 1091] | 76 to 100 | 2 to 10 |
| CNC(=O)CN1CCN(c2nc(-c3ccccn3)nc3scc(-c4ccccc4)c23)CC1 [drawing 1092] | 1 to 25 | – |
| O=S1(=O)CCC(N2CCN(c3nc(-c4ccccn4)nc4scc(-c5ccccc5)c34)CC2)C1 (stereo not shown) [drawing 1093] | 1 to 25 | – |
| CN(CC(=O)N1CCOCC1)c1nc(-c2ccccn2)nc2scc(-c3ccccc3)c12 [drawing 1094] | 1 to 25 | – |
| CON(C)c1nc(-c2ccccn2)nc2scc(-c3ccccc3)c12 [drawing 1095] | 25 to 50 | – |
| O=C(CN1CCN(c2nc(-c3ccccn3)nc3scc(-c4ccccc4)c23)CC1)N1CCCCC1 [drawing 1096] | 25 to 50 | – |
| O=C(CNc1nc(-c2ccccn2)nc2scc(-c3ccccc3)c12)NC1CC1 [drawing 1097] | 25 to 50 | – |
| CCN(CC)C(=O)CN1CCN(c2nc(-c3ccccn3)nc3scc(-c4ccccc4)c23)CC1 [drawing 1098] | 25 to 50 | – |
| CC(C)CNC(=O)CN1CCN(c2nc(-c3ccccn3)nc3scc(-c4ccccc4)c23)CC1 [drawing 1099] | 1 to 25 | – |
| O=S1(=O)CCC(Nc2nc(-c3ccccn3)nc3scc(-c4ccccc4)c23)C1 (stereo not shown) [drawing 1100] | 1 to 25 | – |
| c1ccc(-c2csc3nc(-c4ccccn4)nc(N4CCN(CCN5CCCC5)CC4)c23)cc1 [drawing 1101] | 76 to 100 | – |
| OC1CCCN(c2nc(-c3ccccn3)nc3scc(-c4ccccc4)c23)C1 (stereo not shown) [drawing 1102] | 51 to 75 | – |

| SMILES | inhibition at 30 µM [%] | IC50 [µM] |
| --- | --- | --- |
| OC1CCN(c2nc(-c3ccccn3)nc3scc(-c4ccccc4)c23)CC1 [drawing 1103] | 1 to 25 | – |
| O=C(CN1CCN(c2nc(-c3ccccn3)nc3scc(-c4ccccc4)c23)CC1)N1CCCC1 [drawing 1104] | 1 to 25 | – |
| O=C(C1CCN(c2nc(-c3ccccn3)nc3scc(-c4ccccc4)c23)CC1)N1CCCCC1 [drawing 1105] | 1 to 25 | – |
| c1ccc(-c2csc3nc(-c4ccccn4)nc(NN4CCOCC4)c23)cc1 [drawing 1106] | 1 to 25 | – |
| NC(=O)C1CCCN(c2nc(-c3ccccn3)nc3scc(-c4ccccc4)c23)C1 (stereo not shown) [drawing 1107] | 1 to 25 | – |
| COCCNc1nc(-c2ccccn2)nc2scc(-c3ccccc3)c12 [drawing 1108] | 76 to 100 | – |
| CC(=O)N1CCN(c2nc(-c3ccccn3)nc3scc(-c4ccccc4)c23)CC1 [drawing 1109] | 25 to 50 | – |
| O=C1CCN(c2nc(-c3ccccn3)nc3scc(-c4ccccc4)c23)CC1 [drawing 1110] | 25 to 50 | – |
| NC(=O)C1CCN(c2nc(-c3ccccn3)nc3scc(-c4ccccc4)c23)CC1 [drawing 1111] | 1 to 25 | – |
| Nc1nc(O)c2nc[nH]c2n1 [drawing 1112] | 1 to 25 | – |
| Clc1csc2nc(-c3ccccn3)nc(N3CCOCC3)c12 [drawing 1113] | 1 to 25 | – |
| COc1ccnc(-c2nc(O)c3ccsc3n2)c1 [drawing 1114] | 51 to 75 | > 30 |
| COCCC(C)Nc1nc(-c2ccccn2)nc2sccc12 (stereo not shown) [drawing 1115] | 25 to 50 | – |
| Oc1nc(-c2ccccn2)nc2c(C3CCNCC3)csc12 [drawing 1116] | 1 to 25 | – |
| COc1ccccc1N1CCN(C(=O)c2csc3c(O)nc(-c4ccccn4)nc23)CC1 [drawing 1117] | 1 to 25 | – |
| COc1cccc(N2CCN(C(=O)c3csc4c(O)nc(-c5ccccn5)nc34)CC2)c1 [drawing 1118] | 76 to 100 | > 30 |
| O=C(c1csc2c(O)nc(-c3ccccn3)nc12)N1CCN(c2ccccc2Cl)CC1 [drawing 1119] | 1 to 25 | – |
| O=C(c1csc2c(O)nc(-c3ccccn3)nc12)N1CCN(c2cccc(Cl)c2)CC1 [drawing 1120] | 25 to 50 | – |
| O=C(c1csc2c(O)nc(-c3ccccn3)nc12)N1CCN(c2ccccc2F)CC1 [drawing 1121] | 1 to 25 | – |
| N#Cc1ccccc1N1CCN(C(=O)c2csc3c(O)nc(-c4ccccn4)nc23)CC1 [drawing 1122] | 1 to 25 | – |
| Cc1ccccc1N1CCN(C(=O)c2csc3c(O)nc(-c4ccccn4)nc23)CC1 [drawing 1123] | 25 to 50 | > 30 |
| COc1ccc(CN2CCN(C(=O)c3csc4c(O)nc(-c5ccccn5)nc34)CC2)cc1 [drawing 1124] | 1 to 25 | – |
| O=C(c1csc2c(O)nc(-c3ccccn3)nc12)N1CCN(Cc2cccc(O)c2)CC1 [drawing 1125] | 51 to 75 | > 30 |
